In ChEMBL document CHEMBL4270582, “Diterpenoid lead stevioside and its hydrolysis products steviol and isosteviol: Biological activity and structural modification” (Eur J Med Chem, 2018):
≈ marks a conversion by molar mass, not a printed value.

Legend:
Syrian golden hamster [1] = assay: Induction of insulin sensitivity in Syrian golden hamster assessed as uplift of glucose uptake in insulin-resistance condition relative to control; type: functional, Mesocricetus auratus
Syrian golden hamster [2] = assay: Induction of insulin sensitivity in Syrian golden hamster assessed as uplift of glucose uptake in normal condition relative to control; type: functional, Mesocricetus auratus
Jejunum = assay: Downregulation of glucose uptake in Syrian golden hamster jejunum at 1 mM after 60 mins relative to control; type: functional, Mesocricetus auratus
HCT-116 [3] = assay: Antiproliferative activity against human HCT116 cells by MTT assay; type: functional, cell-based
SW-620 = assay: Antiproliferative activity against human SW620 cells by MTT assay; type: functional, cell-based
HepG2 [4] = assay: Antiproliferative activity against human HepG2 cells by MTT assay; type: functional, cell-based
Huh-7 = assay: Antiproliferative activity against human HuH7 cells by MTT assay; type: functional, cell-based
[5] = test system: Mycobacterium tuberculosis; assay: Antimycobacterial activity against Mycobacterium tuberculosis H37Rv after 10 to 12 days by vertical diffusion method; type: functional
Mycolicibacter terrae = assay: Antimycobacterial activity against Mycobacterium terrae after 10 to 12 days by vertical diffusion method; type: functional
Mycobacterium avium = assay: Antimycobacterial activity against Mycobacterium avium after 10 to 12 days by vertical diffusion method; type: functional
[6] = test system: Mycobacterium tuberculosis; assay: Antimycobacterial activity against Mycobacterium tuberculosis H37Rv after 11 days by serial dilution method; type: functional; conditions: 264 h
MCF7 [7] = assay: Antiproliferative activity against human MCF7 cells after 48 hrs by SRB assay; type: functional, cell-based; conditions: MCF7, 48 h
B16-F10 = assay: Antiproliferative activity against mouse B16F10 cells; type: functional, cell-based
MCF7 [8] = assay: Antiproliferative activity against human MCF7 cells; type: functional, cell-based
[9] = Inhibition of calf thymus DNA polymerase alpha using poly(dA)template/oligo(dT) (12 to 18 residues) primer and dTTP as substrate after 10 mins; parameters: species or system Bos taurus
NCI-H460 = assay: Antiproliferative activity against human H460 cells after 24 hrs by MTT assay; type: functional, cell-based; conditions: NCI-H460, 24 h
HL-60 [10] = assay: Antiproliferative activity against human HL60 cells after 24 hrs by MTT assay; type: functional, cell-based; conditions: HL-60, 24 h
MRC5 = assay: Antiproliferative activity against human MRC5 cells after 24 hrs by MTT assay; type: cell-based; conditions: MRC5, 24 h
HepG2 [11] = assay: Antiproliferative activity against human HepG2 cells after 24 hrs by MTT assay; type: functional, cell-based; conditions: HepG2, 24 h
[12] = test system: Mycobacterium tuberculosis; assay: Antimycobacterial activity against Mycobacterium tuberculosis H37Rv after 10 to 12 days by double serial dilution method; type: functional
Staphylococcus aureus = assay: Antibacterial activity against Staphylococcus aureus 209p by serial dilution method; type: functional
Candida albicans = assay: Antifungal activity against Candida albicans 855-653 by serial dilution method; type: functional
HCT-116 [13] = assay: Antiproliferative activity against human HCT116 cells after 48 hrs by MTT assay; type: functional, cell-based; conditions: HCT-116, 48 h
A549 = assay: Antiproliferative activity against human A549 cells after 48 hrs by MTT assay; type: functional, cell-based; conditions: A549, 48 h
ASPC1 = assay: Antiproliferative activity against human AsPC1 cells after 48 hrs by MTT assay; type: functional, cell-based; conditions: ASPC1, 48 h
HepG2 [14] = assay: Antiproliferative activity against human HepG2 cells; type: functional, cell-based
HCT-116 [15] = assay: Antiproliferative activity against human HCT116 cells after 72 hrs by MTT assay; type: functional, cell-based; conditions: HCT-116, 72 h
HeLa = assay: Antiproliferative activity against human HeLa cells after 48 hrs by MTT assay; type: functional, cell-based
Bacillus subtilis = assay: Antibacterial activity against Bacillus subtilis CMCC (B) 63501 after 6 hrs by two fold serial dilution method; type: functional; conditions: CMCC (B) 63501, 6 h
SK-BR-3 = assay: Antiproliferative activity against human SKBR3 cells after 48 hrs by MTT assay; type: functional, cell-based; conditions: SK-BR-3, 48 h
HL-60 [16] = assay: Antiproliferative activity against human HL60 cells after 48 hrs by MTT assay; type: functional, cell-based; conditions: HL-60, 48 h
AZ-521 cell line = assay: Antiproliferative activity against human AZ-521 cells after 48 hrs by MTT assay; type: functional, cell-based; conditions: AZ-521, 48 h

C=C1C[C@@]23CC[C@H]4[C@@](C)(CCC[C@@]4(C)C(=O)O[C@@H]4O[C@H](CO)[C@@H](O)[C@H](O)[C@H]4O)[C@@H]2CC[C@]1(O[C@@H]1O[C@H](CO)[C@@H](O)[C@H](O)[C@H]1O[C@@H]1O[C@H](CO)[C@@H](O)[C@H](O)[C@H]1O)C3 [STEVIOSIDE]
fold change (FC) (Syrian golden hamster [1]): 4.4
fold change (FC) (Syrian golden hamster [2]): 2.1
Activity (Jejunum): 43%

CCOC(=O)[C@]1(C)CCC[C@@]2(C)[C@@H]3CC[C@@]4(C)C[C@]3(CC[C@@H]21)C/C4=N\OC(=O)CCC(=O)OC(C)CCOc1no[n+]([O-])c1S(=O)(=O)c1ccccc1 (stereo partly specified)
IC50 (HCT-116 [3]): 0.94 µM
IC50 (SW-620): 1.15 µM
IC50 (HepG2 [4]): 2.42 µM
IC50 (Huh-7): 1.73 µM

C[C@@]12CC[C@@H]3[C@@](CC[C@H]4[C@@]3(C)CCC[C@@]4(C)C(=O)O[C@@H]3O[C@H](C(=O)NN)[C@@H](O)[C@H](O)[C@H]3O)(C/C1=N\N)C2
MIC [5]: 0.7 µg/mL (≈ 1.34 µM)
MIC (Mycolicibacter terrae): 0.35 µg/mL (≈ 0.67 µM)
MIC (Mycobacterium avium): 0.7 µg/mL (≈ 1.34 µM)

C[C@@]12CC[C@@H]3[C@@](CC[C@H]4[C@@]3(C)CCC[C@@]4(C)C(=O)NNC(=O)CCCCC(=O)NNC(=O)[C@]3(C)CCC[C@H]4[C@@H]5CC[C@@]6(C)C[C@]5(CC[C@@H]43)CC6=O)(CC1=O)C2
MIC [6]: 5 µg/mL (≈ 6.57 µM)

C=C1C[C@@]23CC[C@H]4[C@@](C)(CCC[C@@]4(C)C(=O)O)[C@@H]2CC[C@]1(O)C3 [STEVIOL]
IC50 (MCF7 [7]): 185 µM

C=C1C(=O)[C@@]2(C)CC[C@@H]3[C@]1(CC[C@H]1[C@@]3(C)CCC[C@@]1(C)C(=O)NCC(=O)OCCCOc1no[n+]([O-])c1S(=O)(=O)c1ccccc1)C2
IC50 (B16-F10): 0.02 µM

CCN(CC)CCNC(=O)c1c(C)[nH]c(/C=C2\C(=O)Nc3ccc(F)cc32)c1C [SUNITINIB]
IC50 (HepG2 [4]): 7.78 µM

COC(=O)[C@]1(C)CCC[C@@]2(C)[C@@H]3CC[C@@]4(C)C[C@]3(CC[C@@H]21)C/C4=N\NC(=O)c1cccnc1
MIC [6]: 10 µg/mL (≈ 22.1 µM)

C[C@@]12CC[C@@H]3[C@@](CC[C@H]4[C@@]3(C)CCC[C@@]4(C)C(=O)O)(CC1=O)C2 [ISOSTEVIOL]
IC50 (MCF7 [8]): 2.18 µg/mL (≈ 6.85 µM)
IC50 [9]: 64 µM

CCOC(=O)[C@]1(C)CCC[C@@]2(C)[C@@H]3CC[C@@]4(C)C[C@]3(CC[C@@H]21)C/C4=N\OC(=O)CCC(=O)OCCOc1no[n+]([O-])c1S(=O)(=O)c1ccccc1
IC50 (HCT-116 [3]): 0.48 µM
IC50 (SW-620): 3.02 µM
IC50 (HepG2 [4]): 2.95 µM
IC50 (Huh-7): 2.86 µM

C[C@@]12CC[C@@H]3[C@@](CC[C@H]4[C@@]3(C)CCC[C@@]4(C)C(=O)NCCNC(=O)[C@]3(C)CCC[C@@]4(C)[C@@H]5CC[C@@]6(C)C[C@]5(CC[C@@H]43)CC6=O)(CC1=O)C2
IC50 (NCI-H460): 14 µM
IC50 (HL-60 [10]): 4.8 µM
IC50 (MRC5): 22.6 µM
IC50 (HepG2 [11]): 17.4 µM

C[C@@]12CC[C@@H]3[C@@](CC[C@H]4[C@@]3(C)CCC[C@@]4(C)C(=O)O)(C[C@H]1CC(=O)CCCCCCCCC(=O)C[C@@H]1C[C@]34CC[C@H]5[C@@H](CCC[C@H]5C(=O)O)[C@@H]3CC[C@@]1(C)C4)C2
MIC [12]: 12.5 µg/mL (≈ 16.1 µM)

C[C@@]12CC[C@@H]3[C@@](CC[C@H]4[C@@]3(C)CCC[C@@]4(C)C(=O)OCC[N+](C)(C)Cc3ccccc3)(CC1=O)C2.[Br-]
MIC (Staphylococcus aureus): 31.2 µg/mL
MIC (Candida albicans): 31.2 µg/mL

C[C@@]12CC[C@@H]3[C@@](CC[C@H]4[C@@]3(C)CCC[C@@]4(C)C(=O)OCc3cn(CCCc4ccccc4)nn3)(CC1=O)C2
IC50 (HCT-116 [13]): 6.6 µM
IC50 (A549): 9.95 µM
IC50 (ASPC1): 4.79 µM

CCCCCCCC(=O)CO[C@]1(C)CCC[C@@]2(C)[C@@H]3CC[C@@]4(C)C[C@]3(CC[C@@H]21)CC4=O
IC50 (HepG2 [14]): 2 µM

COP(=O)(OC)C(C)(C)C/C(C)=N/N=C1\C[C@]23CC[C@H]4[C@@](C)(CCC[C@@]4(C)C(=O)N/N=C(\C)CC(C)(C)P(=O)(OC)OC)[C@@H]2CC[C@@]1(C)C3
MIC [6]: 5 µg/mL (≈ 6.88 µM)

COC(=O)[C@]1(C)CCC[C@@]2(C)[C@@H]3CC[C@@]4(C)C[C@]3(CC[C@@H]21)C/C4=N\NC(=O)c1ccccn1
MIC [6]: 10 µg/mL (≈ 22.1 µM)

CCOC(=O)[C@]1(C)CCC[C@@]2(C)[C@@H]3CC[C@@]4(C)C[C@]3(CC[C@@H]21)[C@H](Cn1cc(COc2ccccc2C=O)nn1)[C@H]4O
IC50 (HCT-116 [15]): 2.98 µM

NNC(=O)c1ccncc1 [ISONIAZID]
MIC [6]: 0.5 µg/mL (≈ 3.65 µM)

C[C@@]12CC[C@@H]3[C@@](CC[C@H]4[C@@]3(C)CCC[C@@]4(C)C(=O)OCc3cn(-c4ccccc4)nn3)(CC1=O)C2
IC50 (HeLa): 5.83 µM

C=C[C@]12CC[C@H]3[C@@](C)(CCC[C@@]3(C)C(=O)OCC)[C@@H]1CC[C@](C)(/C=N/O)C2
MIC (Bacillus subtilis): 1.56 µg/mL (≈ 4.15 µM)

C=C1C[C@@]23CC[C@H]4[C@@](C)(CCC[C@@]4(C)C(=O)NCCNC(=O)[C@]4(C)CCC[C@@]5(C)[C@@H]6CC[C@]7(O)C[C@@]6(CC[C@@H]54)CC7=C)[C@@H]2CC[C@]1(O)C3
IC50 (NCI-H460): 10.7 µM
IC50 (HL-60 [10]): 4.3 µM
IC50 (MRC5): 17 µM
IC50 (HepG2 [11]): 17.9 µM

C=C1C[C@@]23CC[C@H]4[C@@H](CCC[C@@]4(C)COC(=O)/C=C/C(F)(F)F)[C@@H]2CC[C@]1(O)C3
IC50 (SK-BR-3): 1.2 µM
IC50 (HL-60 [16]): 2.9 µM
IC50 (A549): 4.1 µM
IC50 (AZ-521 cell line): 1.7 µM
